From patent US20150320880A1, “ANTIBODY DRUG CONJUGATES” (NOVARTIS AG, priority 2013, published 2015) come the findings set out here.

For data set [1], the system named is GIST882 cell line. Briefly: Combination dose-matrix cell viability (CellTiter Glo, Loewe model). Type of data set: cell-based. The conditions noted are these: NEG085-MCC-DM1 in combination with the compound, 120 h. The method, then: (§1) Relative inhibition of cell viability was calculated for every dose combination. […] Excess inhibition compared to additivity can be plotted as a full dose-matrix chart to visualize the drug concentrations where synergies occur. Synergistic combinations produced regions of excess inhibition within the dose-matrix. […] “Additivity” was found when the combination generated the same inhibition of cell viability response when compared to the response with the single agent by itself “Synergy” was indicated when the inhibition of cell viability was greater than the response of the single agent compared with itself. Alternatively, “Additivity” was indicated with a Loewe score of less than 5, and “Synergy” was indicated by a Loewe score of greater than 5.
(§2) Cell viability was determined by measuring cellular ATP content using the CellTiter Glo luminescence assay (Promega, Madison Wis.). One day before drug addition, 250-500 GIST cells from 2 different cell lines were plated into 384-well plates (Greiner, Monroe, N.C.) in 20 μl growth media.
On the technique in general: ATP-based viability assays read luminescence as a measure of living cells.

The test system of data set [2] is GIST430 cell line. Described as above. The format is cell-based. The conditions noted are these: NEG085-MCC-DM1 in combination with the compound, 120 h. The method, then: as §1, §2
Data set [3] has as its system HAMLX5343 systemic primary AML xenograft.
Data set [4] deals with T1, Human cKIT D1-5 (human cKIT tr. variant 2, residues 26-520, C-terminal His tag) (human, UniProt P10721 26-524).
T1 construct: also called human cKIT ECD; Human c-Kit ECD
T1 sequence (P10721 other isoform, or with tags, fused parts or gaps mutant limits assumed): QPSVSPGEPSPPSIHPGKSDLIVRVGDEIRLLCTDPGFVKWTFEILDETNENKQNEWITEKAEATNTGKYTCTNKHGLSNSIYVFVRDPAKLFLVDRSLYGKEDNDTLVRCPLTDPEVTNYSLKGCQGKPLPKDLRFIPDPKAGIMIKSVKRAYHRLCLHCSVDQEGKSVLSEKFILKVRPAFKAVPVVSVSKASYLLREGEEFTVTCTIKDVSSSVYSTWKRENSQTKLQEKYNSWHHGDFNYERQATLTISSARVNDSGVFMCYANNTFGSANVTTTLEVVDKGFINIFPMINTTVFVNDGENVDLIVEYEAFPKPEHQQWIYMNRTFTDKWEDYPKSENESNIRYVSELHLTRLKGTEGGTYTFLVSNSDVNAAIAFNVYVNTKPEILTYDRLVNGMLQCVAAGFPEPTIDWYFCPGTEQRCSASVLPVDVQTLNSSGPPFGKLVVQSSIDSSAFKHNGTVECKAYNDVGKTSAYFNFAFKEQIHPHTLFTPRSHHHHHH
Put plainly: SPR (Biacore 2000), antibody captured on anti-human Fc, cKIT ECD as analyte, 25 C, 1:1 fit.

The target of data set [5] is T2, Cynomolgus monkey cKIT D1-5 (residues 25-520, C-terminal His tag) (cynomolgus monkey, UniProt P10721 25-520 (human entry)).
T2 construct: the signal peptide was not part of the protein in the assay; also called cyno cKIT; cynomolgus monkey ECD
T2 chain: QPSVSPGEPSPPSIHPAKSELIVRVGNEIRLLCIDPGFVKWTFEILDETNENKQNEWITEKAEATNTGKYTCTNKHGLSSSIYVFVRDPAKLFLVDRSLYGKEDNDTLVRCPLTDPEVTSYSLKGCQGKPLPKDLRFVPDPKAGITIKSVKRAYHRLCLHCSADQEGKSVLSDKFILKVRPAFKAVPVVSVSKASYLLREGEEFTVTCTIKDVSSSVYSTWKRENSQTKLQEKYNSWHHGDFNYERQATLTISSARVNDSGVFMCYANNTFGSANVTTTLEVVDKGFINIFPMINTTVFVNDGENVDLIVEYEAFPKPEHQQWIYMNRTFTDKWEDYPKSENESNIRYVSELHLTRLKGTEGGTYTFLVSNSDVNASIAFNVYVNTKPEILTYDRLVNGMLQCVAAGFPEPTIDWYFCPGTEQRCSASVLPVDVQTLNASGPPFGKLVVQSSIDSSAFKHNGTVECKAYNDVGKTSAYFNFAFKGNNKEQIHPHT
The data set is described as above.

Data set [6] deals with T3, Mouse cKIT ECD, C-terminal 6x His (Sino Biological Inc, catalog number 50530-M08H) (mouse, UniProt P05532 25-527).
T3 construct: extracellular domain; Bought protein
T3 sequence (looked up): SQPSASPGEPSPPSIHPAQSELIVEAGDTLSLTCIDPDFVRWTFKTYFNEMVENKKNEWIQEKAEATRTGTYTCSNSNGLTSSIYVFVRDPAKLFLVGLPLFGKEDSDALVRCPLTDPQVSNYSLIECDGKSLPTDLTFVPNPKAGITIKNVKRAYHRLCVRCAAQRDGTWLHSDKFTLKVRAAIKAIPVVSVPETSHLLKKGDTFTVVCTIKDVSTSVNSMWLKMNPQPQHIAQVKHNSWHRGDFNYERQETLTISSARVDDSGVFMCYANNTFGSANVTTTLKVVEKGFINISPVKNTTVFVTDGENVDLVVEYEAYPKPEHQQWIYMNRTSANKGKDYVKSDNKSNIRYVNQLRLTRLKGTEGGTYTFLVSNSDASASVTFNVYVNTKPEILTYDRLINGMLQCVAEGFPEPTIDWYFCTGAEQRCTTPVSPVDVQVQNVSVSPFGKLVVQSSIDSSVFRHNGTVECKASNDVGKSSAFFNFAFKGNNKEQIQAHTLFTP
Put plainly: SPR (Biacore 2000), antibody captured on anti-human Fc. (In general: In SPR one partner is held on a chip, and binding of the other changes the refractive index at the surface.)

The target of data set [7] is T4, Rat cKIT D1-5 (residues 25-526, C-terminal mFc) (rat).
T4 construct: The entry includes the linker and mouse Fc tag; also called rat cKIT-mFc
T4 chain: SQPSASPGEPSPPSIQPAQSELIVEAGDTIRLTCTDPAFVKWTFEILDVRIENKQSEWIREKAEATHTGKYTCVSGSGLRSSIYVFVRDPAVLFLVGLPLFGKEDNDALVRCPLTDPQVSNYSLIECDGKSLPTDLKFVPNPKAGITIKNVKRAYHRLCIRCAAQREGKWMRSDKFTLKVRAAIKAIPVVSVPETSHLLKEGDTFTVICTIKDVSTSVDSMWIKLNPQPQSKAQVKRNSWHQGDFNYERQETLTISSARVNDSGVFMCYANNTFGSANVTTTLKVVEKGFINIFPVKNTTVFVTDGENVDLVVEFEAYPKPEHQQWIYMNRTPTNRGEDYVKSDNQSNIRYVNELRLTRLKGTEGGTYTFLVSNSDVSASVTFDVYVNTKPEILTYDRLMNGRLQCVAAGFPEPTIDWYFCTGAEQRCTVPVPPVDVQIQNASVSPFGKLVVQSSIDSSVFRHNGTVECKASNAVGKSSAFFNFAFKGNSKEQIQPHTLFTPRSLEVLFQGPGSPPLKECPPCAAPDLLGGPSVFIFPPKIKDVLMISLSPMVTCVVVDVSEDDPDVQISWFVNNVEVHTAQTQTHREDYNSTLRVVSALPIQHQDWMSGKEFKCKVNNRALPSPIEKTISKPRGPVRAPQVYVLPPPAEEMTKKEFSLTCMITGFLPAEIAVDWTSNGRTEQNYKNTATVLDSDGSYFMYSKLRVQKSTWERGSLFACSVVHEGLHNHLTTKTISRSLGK
The data set is described as above.

In the case of `CCN(CC)CCNC(=O)c1c(C)[nH]c(/C=C2\C(=O)Nc3ccc(F)cc32)c1C` [Sutent ®, Sunitinib], the GIST882 cell line entry in data set [1] is “Additivity (“Additivity” was indicated with a Loewe score of less than 5)”. Further, the GIST430 cell line result in data set [2] is listed as “Additivity (“Additivity” was indicated with a Loewe score of less than 5)”.

As for `CO[C@H]1C[C@@H]2CC[C@@H](C)[C@@](O)(O2)C(=O)C(=O)N2CCCC[C@H]2C(=O)O[C@H]([C@H](C)C[C@@H]2CC[C@@H](OCCO)[C@H](OC)C2)CC(=O)[C@H](C)/C=C(\C)[C@@H](O)[C@@H](OC)C(=O)[C@H](C)C[C@H](C)/C=C/C=C/C=C/1C` [Afinitor ®, Everolimus], the GIST882 cell line entry in data set [1] was “Synergy (“Synergy” was indicated by a Loewe score of greater than 5)”. The GIST430 cell line result in data set [2] is recorded as “Synergy (“Synergy” was indicated by a Loewe score of greater than 5)”.

Consider `CN[C@@H](C)C(=O)N[C@H](C(=O)N1CCC[C@H]1c1nc(C(=O)c2ccc(F)cc2)cs1)C1CCCCC1` [NVP-LCL161], for which the GIST882 cell line result in data set [1] was “Synergy (“Synergy” was indicated by a Loewe score of greater than 5)”. The GIST430 cell line entry in data set [2] is “Synergy (“Synergy” was indicated by a Loewe score of greater than 5)”.

Turning to `COc1ccc(-c2ccc3c(N4CCOC[C@@H]4C)nc(N4CCOC[C@@H]4C)nc3n2)cc1CO` [NVP-CCG168], the GIST882 cell line entry in data set [1] is reported as “Additivity (“Additivity” was indicated with a Loewe score of less than 5)”. Besides, in data set [2], the GIST430 cell line result is reported as “Additivity (“Additivity” was indicated with a Loewe score of less than 5)”.

Regarding `Cc1nc(NC(=O)N2CCC[C@H]2C(N)=O)sc1-c1ccnc(C(C)(C)C(F)(F)F)c1` [NVP-BYL719], in data set [1], the GIST882 cell line result is recorded as “Synergy (“Synergy” was indicated by a Loewe score of greater than 5)”. In addition, in data set [2], the GIST430 cell line entry is recorded as “Synergy (“Synergy” was indicated by a Loewe score of greater than 5)”.

As for `Nc1ccn([C@@H]2O[C@H](CO)[C@@H](O)[C@@H]2O)c(=O)n1` [ARA-C (cytarabine), cytarabine, reference compound], in data set [3] (Day 71, 50 mg/kg Daily × 6 days, intraperitoneally), the “Mean change of body weight (from day 67, % ± SEM)” value is reported as 2.3 ± 2.3%. In addition, in data set [3] (NSG mice, intraperitoneally daily for 6 days), the “anti-tumor activity (leukemic burden)” value is given as “efficacious in three of the animals”. In addition, in data set [3] (intraperitoneally daily for 6 days, in three of six animals), the bodyweight loss was more than 20%. Moreover, in data set [3] (mouse, in vivo), the “Mean change of tumor volume (% CD45 positive PBMC's ± SEM)” value was −6.6 ± 2.1 % CD45 positive PBMC's and the “Regression (%)” value is −52.5%.

With `Cn1c(=O)n(-c2ccc(C(C)(C)C#N)cc2)c2c3cc(-c4cnc5ccccc5c4)ccc3ncc21` [NVP-BEZ235, 2-Methyl-2-[4-[3-methyl-2-oxo-8-(quinolin-3-yl)-2,3-dihydroimidazo[4,5-c]quinolin-1-yl]phenyl]propionitrile], the GIST882 cell line entry in data set [1] is “Synergy (“Synergy” was indicated by a Loewe score of greater than 5)”. Also, the GIST430 cell line result in data set [2] is “Additivity (“Additivity” was indicated with a Loewe score of less than 5)”.

For `COc1cccc(-c2cc(F)ccc2[C@H]2Cc3nc(N)nc(C)c3C(=O)N2)n1` [NVP-HSP990], the GIST882 cell line result in data set [1] was “Additivity (“Additivity” was indicated with a Loewe score of less than 5)”. The GIST430 cell line entry in data set [2] is “Additivity (“Additivity” was indicated with a Loewe score of less than 5)”.

Consider `C[C@@H]1CN(c2ccc(Nc3ncc4ccn(-c5cc(F)c(CN6CCOCC6)c(F)c5)c4n3)cn2)C[C@H](C)N1` [NVP-BVB808], for which the GIST882 cell line result in data set [1] was “Additivity (“Additivity” was indicated with a Loewe score of less than 5)”. For the same molecule, the GIST430 cell line entry in data set [2] is “Additivity (“Additivity” was indicated with a Loewe score of less than 5)”.

Take `Nc1cc(C(F)(F)F)c(-c2cc(N3CCOCC3)nc(N3CCOCC3)n2)cn1` [NVP-BKM120, 4-(trifluoromethyl)-5-(2,6-dimorpholinopyrimidin-4-yl)pyridin-2-amine]: the GIST882 cell line entry in data set [1] is on record as “Synergy (“Synergy” was indicated by a Loewe score of greater than 5)”. Further, the GIST430 cell line entry in data set [2] is “Additivity (“Additivity” was indicated with a Loewe score of less than 5)”.

B1: NEG087 (antibody, human IgG1, kappa, V domains shown)
VH: EVQLVESGGGLVQPGGSLRLSCAASGFTFSDYYMAWVRQAPGKGLEWVASINQNTGSTYYLDSVRGRFTISRDNAKNSLYLQMNSLRAEDTAVYYCARGDYYGTTYWYFDVWGQGTTVTVSS
VL: DIQMTQSPSSLSASVGDRVTITCRASQSISSYLNWYQQKPGKAPKLLIYYTSRLQSGVPSRFSGSGSGTDFTLTISSLQPEDFATYYCQQGRRLWSFGGGTKVEIKR
notes: Humanized, optimized variant of 9P3; human IgG1 kappa
In the case of B1, the equilibrium dissociation constant (Kd) (usually a measure of binding affinity in units of concentration) in data set [4] stood at 1.13 nM; in data set [5] it was 1.39 nM. Besides, the binding result in data set [6] and in data set [7] was “no binding (tested: 3.125-50 nM of cKIT ECD injected)” each time.

B2: NEG027 (antibody, human IgG1, kappa, V domains shown)
VH: B1 VH
VL: EIVMTQSPATLSLSPGERATLSCRASQDISNYLNWYQQKPGQAPRLLIYYTSRLQSGIPARFSGSGSGTDYTLTISSLEPEDFAVYYCQQGKKLWSFGGGTKVEIKR
notes: as for B1
In the case of B2, binding in data set [4] was characterised by a dissociation constant (Kd) of 1.34 nM. Also, the binding result in data set [6] and in data set [7] was “no binding (tested: 3.125-50 nM of cKIT ECD injected)” each time.
